Reference: ChEMBL document CHEMBL1156829 (Proc Natl Acad Sci U S A, 2008)

Tests used:
Plasmodium falciparum [1] = test: NOVARTIS: Inhibition of Plasmodium falciparum W2 (drug-resistant) proliferation in erythrocyte-based infection assay; assay type: functional, organism-based; conditions: Plasmodium falciparum, W2; read-out: EC50
[2] = NOVARTIS: Cytotoxicity against human hepatocellular carcinoma cell line (Huh7); assay type: toxicity, cell-based, Huh-7; conditions: Huh7 cells (hepatocellular carcinoma cell line)
Plasmodium falciparum [3] = test: NOVARTIS: Inhibition of Plasmodium falciparum 3D7 (drug-susceptible) proliferation in erythrocyte-based infection assay; assay type: functional, organism-based; conditions: Plasmodium falciparum, 3D7

| SMILES | EC50 (Plasmodium falciparum [1]) | CC50 [2] | EC50 (Plasmodium falciparum [3]) |
| --- | --- | --- | --- |
| O=c1[nH]c(N2CCCC2)nc2c1CCN(Cc1coc3ccccc3c1=O)C2 | > 896 nM | > 10000 nM | > 1250 nM |
| O=C1C2C(C(=O)N1c1ccc(F)cc1)C1(c3ccccc3)C(=O)C2(c2ccccc2)C(c2ccccc2)=C1c1ccccc1 (centres undefined) | 474 nM | > 100000 nM | 563 nM |
| Cc1ccc(CNC(=O)CSc2nc3ccsc3c(=O)n2CCCCCC(=O)NCCc2ccccc2)cc1 | 2720 nM | > 100000 nM | 4430 nM |
| COc1cc(NC(=O)Cn2ncc3c(=O)oc4ccccc4c32)cc(OC)c1OC | 7830 nM | > 100000 nM | > 12500 nM |
| CCOC(=O)c1ccc(Nc2nc(N)c3cc(OC)c(OC)cc3n2)cc1 | 200 nM | > 100000 nM | 482 nM |
| OC1=C2C(=Nc3ccccc3SC2c2ccc(Br)cc2)c2ccccc21 (centres undefined) | 57.7 nM | > 48000 nM | 337 nM |
| O=C(Cc1cccs1)NC1CCN(CC(O)CN(Cc2ccccc2)S(=O)(=O)c2ccccc2)C1 (centres undefined) | > 1250 nM | > 10000 nM | 181 nM |
| CCN(CC)c1ccc(NCc2ccc3c(c2)OCO3)cc1 | 805 nM | 24600 nM | 603 nM |
| C=CCN1/C(=C/C=C/c2sc3ccccc3[n+]2CC=C)Sc2ccccc21 | 292 nM | > 10000 nM | 2030 nM |
| CC1=CC[C@@H](/C(C)=C/c2csc(C)n2)OC(=O)C[C@H](O)C(C)(C)C(=O)[C@H](C)[C@@H](O)[C@@H](C)CCC1 | 25.8 nM | 6.21 nM | 85.4 nM |
| COc1ccc(-c2c[n+](Cc3ccc(Cl)c(Cl)c3)c3n2CCC3)cc1 | 858 nM | 49700 nM | 537 nM |
| CSc1nc(N)c2c3c(sc2n1)CCCC3 | > 253 nM | > 10000 nM | > 1250 nM |
| N=c1c2c(n(Cc3ccc(Cl)cc3)c3c1CCC3)CCCC2 | 533 nM | > 10000 nM | 222 nM |
| O=C(NCCC(c1ccccc1)c1ccccc1)c1cccc([N+](=O)[O-])c1 | 618 nM | > 10000 nM | 302 nM |
| CCOC(=O)CCC(=O)Oc1cc(C(C)(C)C)nn1-c1ccc(Cl)c(Cl)c1 | 203 nM | > 11100 nM | > 1230 nM |
| CC(C)CN(CC(=O)Nc1cc(C(C)(C)C)nn1-c1ccccc1)C(=O)Cc1cccs1 | 781 nM | > 10000 nM | 1300 nM |
| CCOC(=O)c1cc(-c2ccc(OC)cc2)n(CCC(=O)NCc2ccc(OC)cc2)c1C | 781 nM | > 100000 nM | 987 nM |
| Cc1ccc(CC(=O)Nc2ccc(I)cc2)cc1 | > 11200 nM | > 100000 nM | > 11200 nM |
| Cc1cc(S(=O)(=O)N2CCN(Cc3ccccc3)CC2)ccc1-n1cnnn1 | 1410 nM | > 10000 nM | 732 nM |
| O=C(CN1CCN(C(=O)c2ccco2)CC1)Nc1cc(C(F)(F)F)ccc1Cl | > 10000 nM | > 100000 nM | 4040 nM |
| CC(Nc1ccccc1)C(=O)Nc1cc(C(F)(F)F)ccc1Cl (centres undefined) | 1290 nM | 71400 nM | 1220 nM |
| C=CC[n+]1cccc2c3ccccc3ccc21 | 1900 nM | > 100000 nM | 1720 nM |
| COc1cc(C2Nc3ccc4ccccc4c3C3=C2C(=O)CC(C)(C)C3)ccc1Oc1ccc([N+](=O)[O-])cc1C(F)(F)F (centres undefined) | 95.8 nM | > 100000 nM | 285 nM |

| SMILES | EC50 (Plasmodium falciparum [1]) | CC50 [2] | EC50 (Plasmodium falciparum [3]) |
| --- | --- | --- | --- |
| c1cncc(-c2cc(N3CCc4ccccc4C3)nc(-c3ccncc3)n2)c1 | 794 nM | > 10000 nM | 602 nM |
| O=C(C1CCN(C(c2ccc(F)cc2)c2ccc(F)cc2)CC1)N1CCCC1 | 447 nM | > 10000 nM | > 586 nM |
| COc1ccccc1C(NC(=O)c1cc(OC)c(OC)c(OC)c1)c1cc(Cl)c2cccnc2c1O (centres undefined) | 1230 nM | > 100000 nM | 2200 nM |
| CN1CCc2c(sc3nc(SCC(=O)NCCc4ccccc4)n(-c4ccc(Cl)cc4)c(=O)c23)C1 | 1910 nM | 68500 nM | 1310 nM |
| O=c1cc(NC2CCN(CCCc3ccccc3)CC2)c2cc(Cl)ccc2o1 | 863 nM | 20500 nM | 408 nM |
| Cc1cccc(C2Sc3ccccc3N=C3c4ccccc4C(=O)C32)c1 (centres undefined) | 140 nM | 24400 nM | 300 nM |
| CCN(CC)S(=O)(=O)c1ccc(-c2csc(Nc3ccc(C)c(C)c3)n2)cc1 | > 1170 nM | > 100000 nM | > 2100 nM |
| Cc1ccc(-c2ccc(C#N)c(OCC(=O)NCCc3ccccc3)n2)c(C)c1 | > 1060 nM | > 10000 nM | > 1250 nM |
| COc1ccc(C=NNc2cc(C)nc3ccc(OC)cc23)c(OC)c1 | 43.5 nM | 6690 nM | 33.1 nM |
| C=C[C@H]1CN2CC[C@H]1C[C@H]2[C@H](OC(=O)c1ccc(Cl)cc1)c1ccnc2ccccc12 | 564 nM | > 10000 nM | 412 nM |
| COc1ccc(CCN2C(=O)c3ccc(Oc4ccc(NC(=O)c5oc(=O)c6ccccc6c5-c5ccccc5)cc4)cc3C2=O)cc1OC | 4800 nM | > 100000 nM | > 12500 nM |
| O=c1cccc2n1CC1CC2CN(Cc2cccc(O)c2)C1 (centres undefined) | 1700 nM | > 100000 nM | > 12500 nM |
| O=C1N(c2ccccc2)C[C@@H]2C[C@@H](c3ccc4nsnc4c3)N3CCC[C@@]123 | 641 nM | 9250 nM | 888 nM |
| Cc1ccc(-n2c(SCc3ccc(F)cc3)nnc2C(Cc2ccccc2)NC(=O)NC(C)(C)C)cc1 (centres undefined) | 125 nM | > 62300 nM | 330 nM |
| Cc1cc(N2CCN(Cc3ccc(F)cc3)CC2)n2c(nc3ccccc32)c1C#N | 530 nM | > 100000 nM | 625 nM |
| CCN1/C(=C/C(=C/c2sc3ccccc3[n+]2CC)NC)Sc2ccccc21 | > 422 nM | > 10000 nM | > 1250 nM |
| CCCCCc1ccc(OCCOCC[n+]2ccccc2)c(CCCCC)c1 | 6.85 nM | > 10000 nM | 7.08 nM |
| CCOC(=O)c1cnc2c(C)cc(Cl)cc2c1Nc1ccc(OC)c(OC)c1 | > 726 nM | > 11800 nM | > 1250 nM |
| O=c1cc(C(F)(F)F)c2cc(Cl)c(O)cc2o1 | 2120 nM | > 100000 nM | > 12500 nM |
| CCN1CCN(c2cc(C)c3cc(NC(=O)/C=C/c4sccc4C)ccc3n2)CC1 | > 1550 nM | > 10000 nM | 1590 nM |
| O=C(c1ccccc1)N1CCc2nc(Cc3ccc(F)cc3Cl)sc2C1 | 2360 nM | > 57400 nM | 4400 nM |
| Cc1ccc([N+](=O)[O-])cc1-c1ccc(/C=C2/SC(=S)N(CC(=O)O)C2=O)o1 | > 940 nM | > 10000 nM | > 1250 nM |
| COc1ccc(/C=C2\N=C(c3ccc(Cl)cc3)N(c3cc(Cl)ccc3C)C2=O)cc1OC | > 949 nM | > 10000 nM | > 1250 nM |

| SMILES | EC50 (Plasmodium falciparum [1]) | CC50 [2] | EC50 (Plasmodium falciparum [3]) |
| --- | --- | --- | --- |
| Cc1cccc(Nc2nc(NCc3ccco3)c3ccccc3n2)c1 | 326 nM | 4930 nM | 266 nM |
| CN(CCCNc1nc2ccccc2c2nc(-c3cccnc3)nn12)Cc1ccccc1 | > 996 nM | > 10000 nM | > 771 nM |
| Cc1ccccc1-c1cnnc(NCC2CCCCO2)n1 (centres undefined) | 4820 nM | > 100000 nM | 11100 nM |
| COC(F)(C(=O)Nc1c(C)n(C)n(-c2ccccc2)c1=O)C(F)(F)F (centres undefined) | > 1100 nM | > 9060 nM | 1550 nM |
| CCN(CC)CCNC(=O)c1cc(-c2cc3ccccc3s2)cc(-n2cnnn2)c1 | 151 nM | 21300 nM | 61.6 nM |
| COc1ccc(NC(C)=C2C(=O)c3ccccc3C2=O)c(OC)c1 | 426 nM | > 100000 nM | 1270 nM |
| O=C1c2ccccc2-c2nc3nnnn3nc21 | 98.7 nM | > 10000 nM | 239 nM |
| C=CCOc1ccc(C2C(C(=O)OCC)=C(C)N=c3sc(=Cc4ccccc4O)c(=O)n32)cc1OCC (centres undefined) | 263 nM | 53300 nM | 608 nM |
| CCCN(CCC)CCCNc1ccc(C(=O)Nc2ccc(C)c(F)c2)cc1[N+](=O)[O-] | 268 nM | 10600 nM | 146 nM |
| CC(C)(C)CC(=O)N1CCC[C@@H]2CN(C(=O)CCOc3ccccc3)CC[C@@H]21 | > 874 nM | > 10000 nM | > 1250 nM |
| CCN1/C(=C/c2sc3ccc(-c4ccccc4)cc3[n+]2CCO)C=Cc2ccccc21 | 1340 nM | > 10000 nM | 955 nM |
| COc1ccc(OC(C)=O)c(C=NNC(=O)C(C)Oc2ccccc2Br)c1 (centres undefined) | 2800 nM | > 100000 nM | 5100 nM |
| O=C(NCCc1ccccc1)c1cnc(NCCCN2CCCC2)nc1Nc1ccccc1 | > 1250 nM | > 10000 nM | 541 nM |
| O=C(CCCc1nc(-c2ccccc2)no1)NCc1cccnc1 | 1130 nM | > 10000 nM | > 1770 nM |
| CCCCOc1ccc(C(=O)Oc2ccccc2-c2nc3cc(C)ccn3c2NC(C)(C)CC(C)(C)C)cc1 | 130 nM | > 10000 nM | 804 nM |
| O=C(CC1OC(=O)c2ccccc21)c1ccc(Cl)cc1 (centres undefined) | 342 nM | > 100000 nM | 717 nM |
| COc1ccc(CN2CCc3nnc(CCc4ccccc4)n3CC2)c(F)c1 | > 1250 nM | > 10000 nM | > 1060 nM |
| Cc1ccc2[nH]c3c(NCCCN(C)C)ncnc3c2c1 | 355 nM | 42000 nM | 77.7 nM |
| COc1cc(OC)cc(C(=O)N2CCC(C(=O)Nc3cccc4ccccc34)CC2)c1 | 485 nM | > 10000 nM | > 481 nM |
| COCCNC(=O)[C@@H]1C[C@@H](Sc2nc3ccccc3[nH]2)CN1Cc1ccc2ccccc2c1 | 135 nM | > 100000 nM | 638 nM |
| COc1cccc(C(=O)Oc2ccccc2-c2nc3cc(C)ccn3c2NC(C)(C)CC(C)(C)C)c1 | 6.15 nM | > 10000 nM | 986 nM |
| CCc1ccccc1NC(=O)C1c2ccccc2C(=O)N(CC(C)C)C1c1cccs1 (centres undefined) | 270 nM | > 97200 nM | 364 nM |
